Results from patent publication US20140187594A1, “DIPHENYL ETHER COMPOUNDS FOR THE TREATMENT OF LIVER, LUNG DISORDERS, DIABETIC COMPLICATIONS AND CARDIOVASCULAR DISEASES” (ORCHID CHEMICALS AND PHARMACEUTICALS LTD, priority 2010, published 2014).

Experiments:
[1] = tested on: TNF-α; assay: LPS induced TNF-α level in NAFLD/NASH mice; assay type: in vivo; settings: 100 mg/kg orally 28 days, LPS 500 μg/animal i.p., FIG. 28
Description: To develop NAFLD/NASH model, the same protocol was followed as mentioned in Experiment-2. After induction, animals were further grouped as follows. Animals fed normal chow diet (n=10) served as a normal control (Group I) and animals fed HFD and HFL were further divided into two groups as disease control (Group II) (n=10) and treatment group (Group III) (n=9). Duration of the treatment was 28 days. During this period Group I and Group II animals were received water as vehicle and Group III animals were treated with compound of formula (A) 100 mg/kg orally. On 27th day, animals were kept for 12 hours fasting and on 28th day, after 60 minutes of treatment, animals were challenged with LPS (500 μg/animal) by intraperitoneal route. Then after 90 minutes of LPS challenge, blood collection was carried out, plasma and serum were separated and stored at −80° C. in deep freezer for further analysis. Following blood collection, animals were sacrificed; liver, inguinal and epididymal fats were collected and weighed.
(§1) The parameters like Glucose, ALT, AST, TC, TG (Clinical chemistry analyzer Erba XL 300), insulin (Linco®-CA, Product code: EZRMI-13K) and TNFα (GE Healthcare, Amersham, UK. Product code: RPN2718) were measured using commercially available kits. NEFA was measured in serum using commercially available NEFA C kit (Product code No: 279-75401, Wako pure chemical industries ltd., Japan).

[2] = tested on: IL-6; assay: LPS induced serum IL-6 in vivo; design: species or system mice; settings: 50 mg/kg/day oral, 10 days, LPS 400 μg/kg IP, FIG. 40
Description: (§2) Based on the results obtained in the in-vitro studies, it can be concluded that Compounds A, B and C are moderately potent inhibitors of Aldose Reductase. […] At the end of the assay, cell lysates were probed with anti iNOS antibody. Compound of formula (A) inhibits the iNOS production in these cells (FIG. 38). […] Since iNOS is implicated in the pathology of diabetic complications, it is anticipated that Compound of formula (A) will have a protective effect in the development of neovascularization contributed by elevated iNOS. Inhibits LPS induced TNF-α and IL-6 Inhibition In Vivo: This study was undertaken when the mice are at 10-11 weeks in age. On Day 0 their body weights were measured and they were assigned to two groups of 6 mice each to get similar average group body weights. They were orally administered with either vehicle (deionized water, Group 1) or Compound of formula (A) (50 mg/kg; Group 2) daily between 9:30 and 10:30 AM for 10 days. The body weights were measured on day 3, 7 and 10 of the study before administration of vehicle or drug. On Day 10, the mice were administered LPS at 400 μg/kg, IP. After 1 hour they were orally administered with either vehicle or Compound of formula (A). […]
Serum IL-6 concentration for each group of mice is determined using the Quantikine Mouse IL-6 Immunoassay kit. […] The optical density of each well was read at 450 nm Microplate Reader (FIG. 40).

[3] = tested on: TNF-α; assay: LPS induced serum TNF-α in vivo; design: species or system mice; settings: 50 mg/kg/day oral, 10 days, LPS 400 μg/kg IP, FIG. 39
Description: as §2
Serum TNF-α concentration for each group of mice is determined using the Quantikine. […] The optical density of each well was read at 450 nm using the Microplate Reader (FIG. 39).

[4] = tested on: STZ induced diabetic rat; assay: Lenticular degeneration in STZ induced type I diabetic model; assay type: in vivo, Sprague Dawley rats; settings: 100 mg/kg for 2 months, FIG. 41
Description: The animal model was developed by injecting STZ to Sprague Dawley rats and kept for 10 weeks to develop diabetic complications. Initially animals were in hyperglycemic and chronically, developed several feature of diabetes and diabetic complications, which simulates human diabetes and complications. These features were treated as mentioned below. Forty male Sprague Dawley rats aged 6-8 weeks, body weight range between 150-190 g was used for this study. The animals were divided into two groups. First group (n=10) was treated as a normal control injected with normal saline and the second group (n=30) was treated with STZ (50 mg/kg, i.v.), (Sigma. USA). Body weight was recorded every week and blood glucose every month using glucometer (Contour TS, Bayer Healthcare Ltd.). Every week eyes were examined for cataractous changes. After 10 weeks of diabetes induction animals were grouped based on blood glucose levels and the severity of cataract. The first group served as normal control (n=10). The diabetic animals with cataract were divided into two groups, second group served as disease control (n=9) and third group was treated with compound of formula (A) (n=10) at 100 mg/kg dose for 2 months. At the last day of experiment animals were kept for 12 hours fasting, next day blood was collected, plasma separated and used for biochemical analysis. […] Data Analysis: The values are expressed as Mean±SE. […]

[5] = tested on: acute alcohol induced hypertriglyceridemic mice; assay: Acute alcohol induced hypertriglyceridemia; assay type: in vivo, C57BL/6 mice; settings: (A) 100 mg/kg, disodium salt of (C) 30 mg/kg p.o., seven days, 40% alcohol challenge; FIG. 33
Description: Male C57BL/6 mice aged 6-8 weeks, and body weight ranges between 22-28 g were used for this study. Animals were divided into four groups (n=8) and fed normal chow feed (Nutri Lab® Rodent, Tetragon Chemie Pvt. Ltd., Bangalore) and drinking water. The Group I and Group II animals were served as a normal and disease control treated with vehicle. Group III (n=8) and Group IV (n=8) animals were treated with compound of formula (A) and disodium salts of compound of formula (C) at 100 and 30 mg/kg p.o respectively for seven days. On 7th day one hour post administration of compounds Group II, Group III and Group IV animals were challenged with 40% alcohol (10 ml/kg b.w) p.o. Eighteen hours post challenge animals were bled, plasma separated and used for biochemical parameter analysis.
as §1

COC(=O)[C@@H](N)Cc1ccc(Oc2ccc(CC3SC(=O)NC3=O)cc2)cc1 (stereo partly drawn) [Compound of formula (A), Methyl(2S)-2-amino-3-(4-{4-[(2,4-dioxo-1,3-thiazolidin-5-yl)methyl]phenoxy}phenyl)propanoate]
TNF-α levels [1]: reduction
Serum IL-6 level [2]: reduction
Serum TNF-α level [3]: reduction in TNF-α
lenticular degeneration [4]: significant improvement in lenticular degeneration
plasma TG [5]: significant reduction in TG
